How the values were obtained:
NCI-ADR-RES = details: 48 hours, five 10-fold dilutions starting from 100 μM
SF-268 [1] = assay: cells; details: Homo sapiens, SF-268, 48 h
OVCAR-3 = assay: cells; details: Homo sapiens, OVCAR-3, 48 h
SW-620 = assay: NCI screen antiproliferative activity, sulforhodamine B, Colon Cancer panel; format: cell-based, human; details: 48 hours, five 10-fold dilutions starting from 100 μM
PC-3 [2] = details: 48 hours, five 10-fold dilutions starting from 100 μM
EKVX = details: 48 hours, five 10-fold dilutions starting from 100 μM
HOP-92 = details: 48 hours, five 10-fold dilutions starting from 100 μM
SF-295 = details: 48 hours, five 10-fold dilutions starting from 100 μM
NCI-H322M [3] = details: 48 hours, five 10-fold dilutions starting from 100 μM
786-0 [4] = details: 48 hours, five 10-fold dilutions starting from 100 μM
NCI-H226 [5] = assay: cells; details: Homo sapiens, NCI-H226, 48 h
HOP-62 [6] = details: 48 hours, five 10-fold dilutions starting from 100 μM
M14 = details: 48 hours, five 10-fold dilutions starting from 100 μM
A549/ATCC = assay: cells; details: Homo sapiens, A549, 48 h
SK-MEL-2 [7] = assay: cells; details: Homo sapiens, SK-MEL-2, 48 h
SK-OV-3 [8] = details: 48 hours, five 10-fold dilutions starting from 100 μM
NCI-H322M [9] = assay: cells; details: Homo sapiens, 48 h
NCI-H460 = assay: cells; details: Homo sapiens, NCI-H460, 48 h
NCI-H522 = assay: cells; details: Homo sapiens, NCI-H522, 48 h
BT-549 = assay: cells; details: Homo sapiens, BT-549, 48 h
MCF7 = details: 48 hours, five 10-fold dilutions starting from 100 μM
PC-3 [10] = assay: cells; details: Homo sapiens, PC-3, 48 h
ACHN = details: 48 hours, five 10-fold dilutions starting from 100 μM
SK-MEL-28 = details: 48 hours, five 10-fold dilutions starting from 100 μM
HT29 [11] = details: 48 hours, five 10-fold dilutions starting from 100 μM
SK-MEL-2 [12] = details: 48 hours, five 10-fold dilutions starting from 100 μM
SR = assay: NCI screen antiproliferative activity, sulforhodamine B, Leukemia panel; format: cell-based, human; details: 48 hours, five 10-fold dilutions starting from 100 μM
786-0 [13] = assay: cells; details: Homo sapiens, 786-0, 48 h
SK-OV-3 [14] = assay: cells; details: Homo sapiens, SK-OV-3, 48 h
HT29 [15] = assay: cells; details: Homo sapiens, HT-29, 48 h
NCI-H226 [16] = details: 48 hours, five 10-fold dilutions starting from 100 μM
SF-268 [17] = details: 48 hours, five 10-fold dilutions starting from 100 μM
TK-10 = assay: cells; details: Homo sapiens, TK-10, 48 h
U251 [18] = assay: cells; details: Homo sapiens, U-251, 48 h
MDA-MB-231/ATCC [19] = assay: cells; details: Homo sapiens, MDA-MB-231, 48 h
CAKI-1 = details: 48 hours, five 10-fold dilutions starting from 100 μM
HOP-62 [20] = assay: cells; details: Homo sapiens, HOP-62, 48 h
RXF 393 = assay: cells; details: Homo sapiens, RXF 393, 48 h
OVCAR-5 = assay: cells; details: Homo sapiens, OVCAR-5, 48 h
SNB-75 = details: 48 hours, five 10-fold dilutions starting from 100 μM
HCT-15 = assay: cells; details: Homo sapiens, HCT-15, 48 h
U251 [21] = details: 48 hours, five 10-fold dilutions starting from 100 μM
MDA-MB-231/ATCC [22] = details: 48 hours, five 10-fold dilutions starting from 100 μM
SF-539 = assay: cells; details: Homo sapiens, SF-539, 48 h

## CCCCCCCCNCCC[C@@H](C)[C@H]1CC[C@H]2[C@@H]3[C@H](OCCCN)C[C@@H]4C[C@H](OCCCN)CC[C@]4(C)[C@H]3C[C@H](OCCCN)[C@]12C [CSA-13]
NCI-ADR-RES
  TGI: 5.33 µM
SF-268 [1]
  GI50: 1.5 µM
SF-268 [1]; read-out: LC50
  CC50: 9.14 µM
OVCAR-3
  GI50: 2.24 µM
OVCAR-3; read-out: LC50
  CC50: 88 µM
SW-620
  TGI: 2.67 µM
SW-620; Homo sapiens
  GI50: 1.16 µM
PC-3 [2]
  TGI: >100 µM
EKVX
  TGI: 3.38 µM
HOP-92
  TGI: 21.2 µM
SF-295
  TGI: 2.66 µM
NCI-H322M [3]
  TGI: 9.31 µM
786-0 [4]
  TGI: 2.26 µM
NCI-H226 [5]
  GI50: 2.22 µM
NCI-H226 [5]; read-out: LC50
  CC50: 66.8 µM
HOP-62 [6]
  TGI: 2.96 µM
M14
  TGI: 3.52 µM
A549/ATCC
  GI50: 2.01 µM
A549/ATCC; read-out: LC50
  CC50: 45.9 µM
SK-MEL-2 [7]
  GI50: 4.51 µM
SK-MEL-2 [7]; read-out: LC50
  CC50: > 100 µM
SK-OV-3 [8]
  TGI: 16.3 µM
NCI-H322M [9]
  GI50: 1.36 µM
NCI-H322M [9]; read-out: LC50
  CC50: > 100 µM
NCI-H460
  GI50: 1.21 µM
NCI-H460; read-out: LC50
  CC50: 15.5 µM
NCI-H522
  GI50: 2.59 µM
NCI-H522; read-out: LC50
  CC50: > 100 µM
BT-549
  GI50: 1.07 µM
BT-549; read-out: LC50
  CC50: > 100 µM
MCF7
  TGI: 3.09 µM
PC-3 [10]
  GI50: 3.74 µM
PC-3 [10]; read-out: LC50
  CC50: > 100 µM
ACHN
  TGI: 3.68 µM
SK-MEL-28
  TGI: 1.27 µM
HT29 [11]
  TGI: 5.31 µM
SK-MEL-2 [12]
  TGI: >100 µM
SR
  TGI: 2.29 µM
SR; Homo sapiens
  GI50: 0.272 µM
786-0 [13]
  GI50: 0.837 µM
786-0 [13]; read-out: LC50
  CC50: 5.4 µM
SK-OV-3 [14]
  GI50: 3.45 µM
SK-OV-3 [14]; read-out: LC50
  CC50: 93.1 µM
HT29 [15]
  GI50: 1.11 µM
HT29 [15]; read-out: LC50
  CC50: 34 µM
NCI-H226 [16]
  TGI: 12.8 µM
SF-268 [17]
  TGI: 3.70 µM
TK-10
  GI50: 0.974 µM
TK-10; read-out: LC50
  CC50: > 100 µM
U251 [18]
  GI50: 1.37 µM
U251 [18]; read-out: LC50
  CC50: 6.81 µM
MDA-MB-231/ATCC [19]
  GI50: 0.422 µM
MDA-MB-231/ATCC [19]; read-out: LC50
  CC50: > 100 µM
CAKI-1
  TGI: 10.6 µM
HOP-62 [20]
  GI50: 0.806 µM
HOP-62 [20]; read-out: LC50
  CC50: 9.74 µM
RXF 393
  GI50: 1.54 µM
RXF 393; read-out: LC50
  CC50: > 100 µM
OVCAR-5
  GI50: 1.55 µM
OVCAR-5; read-out: LC50
  CC50: 58.4 µM
SNB-75
  TGI: 5.93 µM
HCT-15
  GI50: 2.63 µM
HCT-15; read-out: LC50
  CC50: 63.9 µM
U251 [21]
  TGI: 3.05 µM
MDA-MB-231/ATCC [22]
  TGI: 4.08 µM
SF-539
  GI50: 0.318 µM
SF-539; read-out: LC50
  CC50: 4.89 µM

From patent publication US9943529B2, “Methods for reducing cellular proliferation and treating certain diseases” (BRIGHAM YOUNG UNIVERSITY, priority 2013, dated 2018)
